What all share (assay): NCI tumour cell line growth inhibition, 48 h
The test system of assay [1] is RPMI-8226 leukemia.
In assay [2] the test system is MDA-MB-231 breast.
Assay [3] concerns SN12C renal.
In assay [4] the test system is SK-OV-3 ovarian.
Assay [5] has as its system OVCAR-4 ovarian.
Assay [6] deals with UO-31 renal.
The test system of assay [7] is SNB-19 CNS.
For assay [8], the system named is EKVX NSCLC.

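Briefly, cells in 96-well plates were exposed to five compound concentrations for 48 h, and endpoints were estimated by linear interpolation. GI50 is the concentration that inhibits growth by half. Definition used: TGI = concentration required for complete inhibition of growth.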 A value given as a limit tells only on which side of the number the result lay.

For the molecule `CN(C)CCCNC(=O)c1cc(NC(=O)c2cc(NC(=O)CCCN3c4ccccc4C=Cc4ccccc43)cn2C)cn1C`, the GI50 in assay [1] was 2290 nM; in assay [2], 4.04 µM; in assay [3] it was 13.8 µM; in assay [4], 21.9 µM; in assay [5] it was 23.2 µM; in assay [6], 23.5 µM. The GI50 was 6.32 µM in assay [7] and 17 µM in assay [8]. The TGI in assay [1] was 6.21 µM; in assay [2], 96 µM; in assay [3], 43 µM; in assay [4], > 100 µM; in assay [5], 97.4 µM; in assay [6] it was 59.7 µM. The TGI is > 100 µM in assay [7] and 71.3 µM in assay [8].
As for `COc1cccc(-c2nc(-c3ccc(NS(=O)(=O)c4ccccc4)cc3)[nH]c2-c2ccnc(Br)c2)c1`, the GI50 in assay [1] is 2490 nM; in assay [2] it was 3.23 µM; in assay [3], 3.03 µM; in assay [4] it was 3.04 µM; in assay [5], 3.84 µM; in assay [6], 2.29 µM. The GI50 in assay [7] was 4.03 µM; in assay [8] it was 2.25 µM. Also, the TGI is 8.31 µM in assay [1]; 45.8 µM in assay [2]; > 100 µM in assay [3]; > 100 µM in assay [4]; > 100 µM in assay [5]; 6.89 µM in assay [6]. The TGI in assay [7] was > 100 µM; in assay [8] it was 9.06 µM.
As for `Nc1nc(SCC(=O)O)[nH]c(=O)c1N`, the TGI in assay [1] is 99.7 µM; in assay [2], > 100 µM; in assay [3] it was 30.5 µM; in assay [4], > 100 µM; in assay [5], > 100 µM; in assay [6], > 100 µM. The TGI in assay [7] and in assay [8] was > 100 µM throughout.
On to `COc1ccc(-c2nc3sccn3c2/C=C/C(=O)c2cc(OC)c(OC)c(OC)c2)cc1OC`, for which the GI50 was 1190 nM in assay [1]; 2.87 µM in assay [2]; 3.06 µM in assay [3]; 2.9 µM in assay [4]; 2.85 µM in assay [5]; 0.639 µM in assay [6]. Also, the GI50 is 2.45 µM in assay [7] and 3.92 µM in assay [8]. The TGI in assay [1] was determined as 4.95 µM; in assay [2], 27.7 µM; in assay [3], 42.8 µM; in assay [4], 8.07 µM; in assay [5], 77.2 µM; in assay [6] it was 8.19 µM. In addition, the figures for the TGI in assay [7] and in assay [8] were 6.3 µM and > 100 µM, respectively.
For the molecule `Clc1ccc(N2COOC3(OOC2)C2CC4CC(C2)CC3C4)cc1`, the GI50 in assay [1] is 4280 nM; in assay [2] it was 6.69 µM; in assay [3], 5.35 µM; in assay [4], > 100 µM; in assay [5], 5.52 µM; in assay [6] it was 0.579 µM. For the same molecule, the GI50 is > 40 µM in assay [7] and 4.17 µM in assay [8]. For the same molecule, the TGI in assay [1] is 14.7 µM; in assay [2] it was > 57.9 µM; in assay [3], > 56.9 µM; in assay [4], > 100 µM; in assay [5] it was > 59.5 µM; in assay [6], 2.21 µM. The TGI in assay [7] and in assay [8] was > 100 µM throughout.
On to `CS(=O)(=O)c1ccc(Oc2nccc(-c3c(-c4ccc(F)cc4)ncn3C3CCNCC3)n2)cc1`, for which the GI50 was > 25000 nM in assay [1]; > 25 µM in assay [2]; > 25 µM in assay [3]; > 25 µM in assay [4]; > 25 µM in assay [5]; > 25 µM in assay [6]. Besides, the GI50 in assay [7] and in assay [8] was > 25 µM each time. Besides, the TGI in assay [1], in assay [2], in assay [3], in assay [4], in assay [5] and in assay [6] was > 25 µM throughout. For the same molecule, the TGI in assay [7] and in assay [8] was > 25 µM throughout.
For `Cc1c(C(=O)CCl)c(=O)n(-c2ccccc2)n1C`, the GI50 was 1070 nM in assay [1]; 11.2 µM in assay [2]; 5.93 µM in assay [3]; 16.4 µM in assay [4]; 3.68 µM in assay [5]; 3.24 µM in assay [6]. The GI50 in assay [7] is 17.1 µM; in assay [8] it was 12.4 µM. In addition, the TGI in assay [1] was found to be 4.62 µM; in assay [2], 27.9 µM; in assay [3], 28.6 µM; in assay [4], 74.5 µM; in assay [5], 14.9 µM; in assay [6] it was 18.5 µM. For the same molecule, the results for the TGI in assay [7] and in assay [8] were 51.1 µM and 29.1 µM, respectively.
`Cc1c(C(=O)N/N=C/c2ccc(O)cc2)nnn1-c1ccnc2c(C(F)(F)F)cccc12`: the GI50 is > 100000 nM in assay [1]; 12.7 µM in assay [2]; 16.3 µM in assay [3]; 27.2 µM in assay [4]; 5.09 µM in assay [5]; > 100 µM in assay [6]. Besides, the GI50 in assay [7] was 23.5 µM; in assay [8], > 100 µM. The TGI in assay [1] is > 100 µM; in assay [2], 48.4 µM; in assay [3], 83.3 µM; in assay [4], 76.7 µM; in assay [5], > 100 µM; in assay [6], > 100 µM. The TGI is 76.7 µM in assay [7] and > 100 µM in assay [8].
As for `CCOC(=O)Oc1c(OC)cc(C(=O)c2ccc(OC)c(OC(=O)CCl)c2OC)cc1OC`, the GI50 is 1980 nM in assay [1]; 1.9 µM in assay [2]; 3.39 µM in assay [3]; 2.58 µM in assay [4]; 6.34 µM in assay [5]; 3.07 µM in assay [6]. The GI50 in assay [7] was 0.75 µM; in assay [8], 3.63 µM. For the same molecule, the TGI in assay [1], in assay [2], in assay [3], in assay [4], in assay [5] and in assay [6] was > 100 µM each time. The TGI in assay [7] and in assay [8] was > 100 µM each time.
